Entries after “also recorded” stand apart in the source; their conditions may differ. Read-outs that look alike come from different tables or passages of the source.
Key:
[1] = tested on: Normal human epidermal keratinocytes (HEKn); assay: Keratinocyte blebbing response, light microscopy (Example 1)
Description: Normal human epidermal keratinocytes (HEKn, Cascade Biologics, Portland, Oreg., USA) were maintained in phenol red-free EpiLife keratinocyte medium (Cascade Biologics) supplemented with 60 μM CaCl2, the antibiotics gentamicin/amphotericin and 1% (v/v) human keratinocyte growth supplement (HKGS; Cascade Biologics). Alternatively, Medium 154 containing 200 μM CaCl2 supplemented with HKGS (1% (v/v), without antibiotics is used. Cells were grown at 37° C. in a humidified 5% CO2 incubator. Final concentrations of the components in the supplemented medium were: bovine pituitary extract, 0.2% v/v; bovine insulin, […]; hydrocortisone, […]; bovine transferrin, […]; human epidermal growth factor, 0.2 ng/mL; optional: gentamicin, 10 μg/mL and amphotericin B, 0.25 μg/mL. All reagents were obtained from Cascade Biologics, Portland, Oreg., USA. The keratinocytes were used for experiments in the fifth or sixth passage.
HEKn cells in passage 6 were split and resuspended to 18500 cells/ml in medium 154 (Cascade Biologics) supplemented with 1% (v/v) human keratinocyte growth supplement (HKGS; Cascade Biologics, no antibiotics added). Cell suspension (0.5 ml) was added to each well in a 24 well plate (Nunc Multidishes Nunclon, Sigma Aldrich, Stockholm, Sweden) and incubated at 37° C., 5% CO2. The medium was replaced every second day by fresh 154 medium supplemented with HKGS (no antibiotics added) until cells had grown confluent.
The compounds to be tested (for example: mBBr, SDS, CDNB, nonanoic acid, HCA, oxazolone were purchased from Sigma Aldrich, qBBr, dBBr, glyoxal, and formaldehyde were obtained from Merck-Schuchardt, Darmstadt, Germany) were diluted in DMSO (Sigma Aldrich, Stockholm, Sweden) to final concentrations of 50 mM, 5 mM and 0.5 mM. These stock solutions were prepared fresh each time the experiment was performed. Alternatively, the mixture, solution, formulation, etc. can be used after dilution/dissolving in DMSO (to test the combined effects of the compounds in that particular preparation).
1) Cell preparation just prior to starting the experiment: the medium in the cell culture plate was replaced by 250 μl fresh Medium 154 (Cascade Biologics) supplemented with HKGS (1% (v/v) human keratinocyte growth supplement (HKGS; Cascade Biologics)) and the cells are kept at 37° C., 5% CO2.
2) Preparation of test compound in medium: 245 μl Medium 154 was added to 0.5 ml microtubes and preheated to 37° C. (waterbath). 5 μl of stock solution of compound was added to the microtubes containing preheated medium. These solutions were then added immediately to the cells in the 24-well plate.
3) The solutions in the microtubes (i.e. 250 μl medium+test compound) were added to each plate. The final concentration of each compound in the test was thus 0.5 mM, 0.05 mM, and 0.005 mM. The plate containing cells and test compounds was incubated for 24 hours at 37° C., 5% CO2.
4A) Each well was examined with a light microscope to determine the blebbing response (a Nikon TE300 inverted microscope) coupled to a digital camera.

[2] = tested on: anti-nuclear antibodies (ANA); assay: Anti-nuclear antibodies (ANA) in sera of mice topically exposed to haptens; format: in vivo; conditions: topical exposure
[3] = tested on: serum amyloid P component (SAP); assay: Serum amyloid P component (SAP) in sera of mice exposed to sensitizers; format: in vivo; conditions: sera of mice exposed to sensitizer
[4] = tested on: K5 and K14 in blebs from human keratinocytes; assay: Keratin content of blebs released from keratinocytes (Western blot); format: cell-based; conditions: blebs from hapten-treated keratinocytes
Description: The quantification of the blebbing response was also made by observing: the amount of released protein (e.g. K5 and K14) through SDS-PAGE and western blots. Blebs were collected and lysed as described in example 4. SDS-PAGE: The samples were diluted (Blebs: 46 μg, 30 μl for blotting and 29.2 μg, 40 μl for SDS-PAGE. K14 and K5: 0.2 μg, 5 μl) with XT Sample Buffer 4X (BioRad, Hercules, Calif., USA) and milli-Q water. 1 μl DTT (2M) was added to each sample followed by heating at 96° C. for 2 minutes before application on the gel. Electrophoresis program: 200V, 400 mA, 50 W, 50 min. MOPS Running Buffer. The gels were fixed, scanned for fluorescence (excitation 480 nm, emission 530 nm) and coomassie stained (Bio-Safe™ Coomassie, BioRad, Hercules, Calif., USA). The gels are then used for quantitative measurement of proteins. Western Blot: Unfixed gels were blotted onto polyvinyldifluoride membranes (PVDF Ready-gel Blotting Sandwiches, 7×8.5 cm, BioRad, Hercules, Calif., USA). Blotting program: 70 V, 400 mA, 50 W, 30 min. Transfer buffer. Novex XCell II™ Blot Module (E19051, Novex, San Diego, Calif., USA). […]
The blebs in the supernatant was lysed with 4× freeze-thaw cycles using ethanol, dry ice and a 37° C. water bath. […] Total protein concentration was determined with Pierce BCA Protein Assay. […]

cysteine 54 (C54) of K5 = target: T1, cysteine 54 (C54) of K5 (Homo sapiens, UniProt P13647); assay: Haptenation site by LTQ-FT-ICR mass spectrometry; conditions: full-thickness human skin and living human keratinocytes
T1 construct: endogenous in cells; host or cells: intact full-thickness human skin; living (primary) human keratinocytes
T1 sequence (P13647 1-590): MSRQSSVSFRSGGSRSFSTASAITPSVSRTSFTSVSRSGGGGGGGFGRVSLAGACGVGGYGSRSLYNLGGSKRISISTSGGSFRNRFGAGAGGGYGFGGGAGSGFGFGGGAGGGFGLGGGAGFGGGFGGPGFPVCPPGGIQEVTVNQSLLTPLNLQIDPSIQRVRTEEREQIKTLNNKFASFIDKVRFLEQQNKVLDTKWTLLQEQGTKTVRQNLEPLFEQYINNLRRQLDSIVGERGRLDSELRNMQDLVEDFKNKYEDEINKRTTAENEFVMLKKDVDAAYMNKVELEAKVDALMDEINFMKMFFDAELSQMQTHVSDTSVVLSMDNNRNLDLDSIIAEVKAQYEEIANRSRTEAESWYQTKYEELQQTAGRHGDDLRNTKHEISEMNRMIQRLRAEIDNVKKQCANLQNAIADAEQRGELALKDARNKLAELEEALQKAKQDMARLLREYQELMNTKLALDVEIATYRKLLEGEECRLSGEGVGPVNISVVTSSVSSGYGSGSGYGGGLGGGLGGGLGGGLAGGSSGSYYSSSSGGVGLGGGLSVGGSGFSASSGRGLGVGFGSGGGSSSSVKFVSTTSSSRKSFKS
T1 sequence (P02533 1-472 partner): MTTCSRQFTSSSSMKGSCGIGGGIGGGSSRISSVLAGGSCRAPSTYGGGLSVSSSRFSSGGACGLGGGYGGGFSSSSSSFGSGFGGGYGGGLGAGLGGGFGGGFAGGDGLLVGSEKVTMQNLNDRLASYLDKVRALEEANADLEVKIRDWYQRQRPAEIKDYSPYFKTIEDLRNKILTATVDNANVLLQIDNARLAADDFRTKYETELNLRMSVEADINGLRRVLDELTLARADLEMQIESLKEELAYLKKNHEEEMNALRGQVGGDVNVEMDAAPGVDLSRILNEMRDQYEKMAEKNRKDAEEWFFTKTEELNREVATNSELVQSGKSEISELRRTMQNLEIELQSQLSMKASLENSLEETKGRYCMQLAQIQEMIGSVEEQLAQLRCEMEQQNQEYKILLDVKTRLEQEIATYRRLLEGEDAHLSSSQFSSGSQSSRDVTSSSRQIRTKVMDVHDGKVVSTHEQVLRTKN
Source text: The second step is that the molecules enter the basal cells. Since the extracellular environment is oxidizing, extracellular cysteines are mostly oxidized to disulfides. However, it is in the reduced, intracellular environment that the haptens find reduced thiols to react with. Once inside the cells the compounds will react with available (i.e. not sterically hindered), reduced cysteines (thiol groups). […] Furthermore, it was identified that one of the cysteines that the haptens react with is cysteine 54 (C54) of K5. […] One of the reasons for intense reaction at C54 is presumably its high effective concentration just inside the cell membrane. It is vital in the life of an organism to fail-safe its epithelial integrity, and the bundling of the KIFs ensures a high effective local concentration of the peptide stretch containing C54, ensuring strong welding of the cell to its surroundings. Amino acids nearby in the primary sequence are consequently also located within physical reach of an incoming compound in similarly high effective concentrations. Looking at blebbing brought on by amine- and arginine-reactive compounds from this angle, the residues K71 and R72 are the closest candidates in the primary sequence.

human skin excerpts = assay: Labeling of human skin excerpts by caged haptens
Source text: The first step is that the molecules come into contact with the skin (the stratum corneum). Many of the reactive molecules react in the stratum corneum, something that can be seen in experiments with human skin excerpts and the caged (mBBr and dBBr) haptens. However, a significant proportion of the molecules penetrate further down to the suprabasal layers of the epidermis but also the follicular pathway is of importance for bringing xenobiotics into the skin. It is likely that the penetration is due both to the acidic pH of the stratum corneum (the molecules react more slowly when the pH is low), but also because many of the available groups have reacted. In the suprabasal layers, the haptens have a hard time penetrating the cells, as the cornification of the cells creates a thick, relatively impermeable envelope around the suprabasal cells. Consequently, the haptens penetrate down to the basal layer. Here, the cell membrane is much thinner and more fluidic and the molecules can thus enter the basal cells.

[5] = HEKn cells, tested at 0.5, 0.05 and 0.005 mM
[6] = HEKn cells, time 24 h and concentration 0.5 mM, visual inspection, blind
[7] = compound added to human keratinocytes

| SMILES | Concentration at which the cells produced blebs after 24 hours [1, 5] | Amount of blebs [1, 6] | Blebbing response of human keratinocytes (induced or not) [1, 7] | Level of anti-nuclear antibodies (ANA) in sera [2] | Level of serum amyloid P component (SAP) [3] | Keratins (K5 and K14) in blebs [4] | Sensitizing potential, collective analysis of the three blebbing endpoints [1] | Blebbing response of human keratinocytes (induced or not) [1] | further results |
| --- | --- | --- | --- | --- | --- | --- | --- | --- | --- |
| O=[N+]([O-])c1ccc(Cl)c([N+](=O)[O-])c1 [CDNB, 1-chloro 2,4 dinitrobenzene] | 500 µM | ++ | provoke a blebbing response | increased levels | increased levels | – | – | – | Time to blebbing ([1]; HEKn cells, inspected at 1.5, 2.5 and 24 h, tested at 0.5, 0.05 and 0.005 mM): 24 h; Sensitizing potential, collective analysis of the three blebbing endpoints ([1]; time to blebbing, concentration, amount of blebs combined): strong sensitizers |
| O=CC=O [glyoxal] | 500 µM | + | provoke a blebbing response | increased levels | increased levels | contain K5 and K14; also recorded: contain keratins | moderate sensitizer | – | – |
| C=O [formaldehyde] | – | – | – | – | – | – | – | provoke a blebbing response | – |
| Cc1c(C)n2c(CBr)c(C)c(=O)n2c1=O [mBBr, monobromobimane] | – | – | – | increased levels | – | – | – | – | Covalent modification of C54 of K5 (cysteine 54 (C54) of K5): modify C54 of K5; also recorded: modifies C54 of K5; Labeling of cells in the basal layer (human skin excerpts): cells in the basal layer are labeled |
| CCO/C=C1\N=C(c2ccccc2)OC1=O [oxazolone] | – | – | – | increased levels | – | contain K5 and K14; also recorded: contain keratins | extreme sensitizer | provoke a blebbing response | Amount of blebs [1]: +++; Time to blebbing [1]: 1.5 h |
| CCCCCCC(C=O)=Cc1ccccc1 [HCA, α-hexyl cinnamic aldehyde] | – | – | – | – | – | – | – | did not induce blebbing at the tested concentrations | – |
